biological target: Cytosol aminopeptidase (Sus scrofa) (UniProt P28839); experiment: Compound was tested for inhibition of Leucine aminopeptidase isolated from porcine kidney; Inhibitor exhibits slow-binding behavior(k on <=1000Me-1Se-1)
Sequence (P28839 whole entry, looked up): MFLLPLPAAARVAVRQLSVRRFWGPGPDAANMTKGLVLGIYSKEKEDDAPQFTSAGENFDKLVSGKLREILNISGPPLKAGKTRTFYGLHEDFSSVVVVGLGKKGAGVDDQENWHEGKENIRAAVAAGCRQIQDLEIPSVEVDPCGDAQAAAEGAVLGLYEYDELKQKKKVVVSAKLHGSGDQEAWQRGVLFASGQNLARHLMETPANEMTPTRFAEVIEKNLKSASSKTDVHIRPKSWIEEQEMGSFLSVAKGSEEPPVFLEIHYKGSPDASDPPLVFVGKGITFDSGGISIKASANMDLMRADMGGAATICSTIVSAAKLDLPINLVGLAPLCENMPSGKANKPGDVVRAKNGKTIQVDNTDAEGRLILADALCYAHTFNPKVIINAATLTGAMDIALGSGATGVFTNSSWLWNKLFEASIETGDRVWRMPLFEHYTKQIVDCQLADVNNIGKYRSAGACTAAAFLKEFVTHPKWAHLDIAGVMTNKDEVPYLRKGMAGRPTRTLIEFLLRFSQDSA

Row | SMILES | Ki [µM]
1 | C[C@H](N)P(=O)(O)O [1-Ammonium-ethanephosphonic acid anion] | 240
2 | CC(C)CC(N)P(N)(=O)C(=O)N[C@@H](CC(C)C)C(=O)O (stereo partly drawn) [1-[amino({[(1S)-1-carboxylateanion-3-methylbutyl]amino}carbonyl)phosphoryl]-3-methylbutan-1-aminium] | 40
3 | CCCCCC(N)P(=O)(O)O (centres undefined) [1-aminohexylphosphonic acid] | 1
4 | COP(=O)(C(=O)N[C@@H](CC(C)C)C(=O)O)C(N)CC(C)C (stereo partly drawn) [2-(1-Ammonium-3-methylbutylmethoxyphosphorylcarbonylamino)-4-methyl-(2S)-pentanoate] | 1650
5 | CC(C)CCN [3-Methyl-butylamine] | > 50000
6 | COP(=O)(O)C(N)Cc1ccccc1 (centres undefined) [(1-Ammonium-2-phenyl-ethyl)-phosphonic acid monomethyl ester] | 43
7 | COP(=O)(O)C(N)CC(C)C (centres undefined) [(1-Ammonium-3-methyl-butyl)-phosphonic acid monomethyl ester] | 320
8 | CC(C)CCP(=O)(O)O [(3-Methyl-butyl)-phosphonic acid] | 775
9 | N[C@H](Cc1ccccc1)P(=O)(O)O [(S)-1-Ammonium-2-phenyl-ethanephosphonic acid anion] | 15.4
10 | NCP(=O)(O)O [Ammonium-methanephosphonic acid anion] | 1040
11 | N[C@@H](Cc1ccccc1)P(=O)(O)O [[(1R)-1-amino-2-phenylethyl]phosphonic acid] | 0.42

biological target: not listed separately; experiment: as above

Row | SMILES | Ki [µM]
12 | CCCCCCCC(N)P(=O)(O)O (centres undefined) [1-Ammonium-octane-1-phosphonic acid anion] | 0.47
13 | CC(C)C(N)P(=O)(O)O (centres undefined) [1-amino-2-methylpropylphosphonic acid] | 1.2
14 | CCC(N)P(=O)(O)O (centres undefined) [1-aminopropylphosphonic acid] | 3.6
